Measurements as given in patent US11691984B2, “Compounds and methods for DCAF-mediated protein degradation” (The Scripps Research Institute, priority 2018, dated 2023).

Experiments:
ACAT1 = target: T1, ACAT1 (Homo sapiens, UniProt P24752); test: Competitive ABPP (TMT) of cysteine engagement in ACAT1; assay type: cell-based; settings: HEK293T, 1.5 h
T1 construct: endogenous in cells; host or cells: HEK293T
T1 sequence (P24752 34-427): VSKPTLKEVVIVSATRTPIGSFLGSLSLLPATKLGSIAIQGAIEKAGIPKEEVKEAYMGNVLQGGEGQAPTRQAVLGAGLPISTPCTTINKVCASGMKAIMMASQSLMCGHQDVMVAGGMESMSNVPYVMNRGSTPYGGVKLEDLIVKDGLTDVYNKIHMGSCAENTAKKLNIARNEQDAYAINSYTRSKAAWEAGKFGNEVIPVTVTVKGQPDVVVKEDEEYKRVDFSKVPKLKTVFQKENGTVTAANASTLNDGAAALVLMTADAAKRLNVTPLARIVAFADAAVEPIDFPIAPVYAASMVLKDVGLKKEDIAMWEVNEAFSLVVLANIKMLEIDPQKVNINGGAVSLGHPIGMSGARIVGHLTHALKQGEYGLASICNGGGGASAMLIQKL
Procedure: HEK293T cells were treated with DMSO (four biological replicates), 2 μM KB02-SLF (three biological replicates) or 20 μM KB02-JQ1 (three biological replicates) for 1.5 h (ten samples in total). Cells were collected, washed once with PBS and lysed in PBS by sonication (40%, 4, 20 pulses). Samples were clarified by centrifugation for 10 min at 8,000 g. Lysate was adjusted to 1.0 mg/mL in 500 μL. Samples were labeled with 100 μM iodoacetamide alkyne (5 μL of 10 mM stock in DMSO) at room temperature for 1 hour, conjugated by CuACC to desthiobiotin azide (10 μL of 5 mM stock in DMSO, final concentration=100 tris(2-carboxyethyl)phosphine hydrochloride (TCEP, 10 μL of 50 mM stock in H2O, final concentration=1 mM), TBTA (30 μL of 1.7 mM stock in 4:1 tBuOH:DMSO, final concentration=100 μM) and CuSO4 (10 μL of 50 mM stock in H2O, final concentration=1 mM). The samples were allowed to react for 1 hour at room temperature. Proteins were precipitated by adding 3.5 mL of H2O, 4 mL of methanol and 1.5 mL of chloroform, followed by centrifugation at 5,000 g for 15 min (4° C.). After aspirating the top layer, the protein pellets with bottom layer were washed with 8 mL cold methanol by centrifugation at 5,000 g for 15 min (4° C.). […]
(§1) The samples were analyzed in Orbitrap Fusion Tribrid mass spectrometer (Thermo Scientific) coupled to UltiMate 3000 HPLC system (Thermo Scientific). […]

DCAF16 = target: T2, DCAF16 (Homo sapiens, UniProt Q9NXF7); test: Competitive ABPP (TMT) of cysteine engagement in endogenous DCAF16; assay type: cell-based; settings: HEK293T, 1.5 h
T2 construct: endogenously expressed DCAF16 in HEK293T cells; endogenous in cells; host or cells: HEK293T
Procedure: HEK293T cells were treated with DMSO (four biological replicates), 2 μM KB02-SLF (three biological replicates) or 20 μM KB02-JQ1 (three biological replicates) for 1.5 h (ten samples in total). Cells were collected, washed once with PBS and lysed in PBS by sonication (40%, 4, 20 pulses). Samples were clarified by centrifugation for 10 min at 8,000 g. Lysate was adjusted to 1.0 mg/mL in 500 μL. Samples were labeled with 100 μM iodoacetamide alkyne (5 μL of 10 mM stock in DMSO) at room temperature for 1 hour, conjugated by CuACC to desthiobiotin azide (10 μL of 5 mM stock in DMSO, final concentration=100 tris(2-carboxyethyl)phosphine hydrochloride (TCEP, 10 μL of 50 mM stock in H2O, final concentration=1 mM), TBTA (30 μL of 1.7 mM stock in 4:1 tBuOH:DMSO, final concentration=100 μM) and CuSO4 (10 μL of 50 mM stock in H2O, final concentration=1 mM). The samples were allowed to react for 1 hour at room temperature. Proteins were precipitated by adding 3.5 mL of H2O, 4 mL of methanol and 1.5 mL of chloroform, followed by centrifugation at 5,000 g for 15 min (4° C.). After aspirating the top layer, the protein pellets with bottom layer were washed with 8 mL cold methanol by centrifugation at 5,000 g for 15 min (4° C.). Protein pellets were resuspended in 90 μL of buffer containing 9 M urea, 10 mM DTT and 50 mM tetramethylammonium bicarbonate (pH 8.5), sonicated (40%, 4, 5 pulses) and heated at 65° C. for 20 min. Samples were cooled to room temperature and alkylated with 50 mM iodoacetamide (10 μL of 500 mM stock in H2O) at 37° C. for 30 minutes. Samples were diluted with 350 μL of 50 mM tetramethylammonium bicarbonate (pH 8.5) and digested with 2 μg trypsin at 37° C. for 4 hours. 40 μL of streptavidin-agarose beads slurry was washed in immunoprecipitation (IP) washing buffer and added to each sample. Beads with peptide samples were rotated for 1 hour at room temperature, filtered off by micro Bio-Spin chromatography column (Bio-Rad) and washed with 1 mL of IP washing buffer (three times), 1 mL of PBS (three times) and 1 mL of H2O. Peptides were eluted by adding 300 μL of 50% acetonitrile with 0.1% of formic acid and dried in vacuum concentrator.
Peptides were resuspended in 100 μL of 30% acetonitrile in 200 mM EPPS (pH 8) and labeled with TMT10plex isobaric reagent following the manufacturer's instructions. 0.15% of hydroxylamine (3 μL of 5% stock in H2O) was added to each sample to quench the reaction (incubate for 15 minutes). After adding 5 μL of formic acid to each sample, 10 peptide samples were combined and dried in vacuum concentrator. […]
as §1

Row | SMILES | engagement of ACAT1 C126 (ACAT1; KB02-JQ1 20 μM) | engagement of DCAF16 C119 (DCAF16; KB02-JQ1 20 μM) | engagement of DCAF16 peptide (aa 168-184) containing cysteines 173 and 177-179 (DCAF16; KB02-JQ1 20 μM) [%] | engagement of ACAT1 C126 (ACAT1; KB02-SLF 2 μM) | engagement of DCAF16 C119 (DCAF16; KB02-SLF 2 μM) | engagement of DCAF16 peptide (aa 168-184) containing cysteines 173 and 177-179 (DCAF16; KB02-SLF 2 μM) [%]
1 | Cc1sc2c(c1C)C(c1ccc(Cl)cc1)=N[C@@H](CC(=O)NCCOCCOCCNC(=O)COc1ccc3c(c1)CCCN3C(=O)CCl)c1nnc(C)n1-2 [KB02-JQ1, (S)-2-((1-(2-chloroacetyl)-1,2,3,4-tetrahydroquinolin-6-yl)oxy)-N-(2-(2-(2-(2-(4-(4-chlorophenyl)-2,3,9-trimethyl-6H-thieno[3,2-f][1,2,4]triazolo[4,3-a][1,4]diazepin-6-yl)acetamido)ethoxy)ethoxy)ethyl)acetamide] | fully engaged | no evidence of engagement | 40 |  |  | 
2 | CCC(C)(C)C(=O)C(=O)N1CCCC[C@H]1C(=O)O[C@H](CCc1ccc(OC)c(OC)c1)c1cccc(NC(=O)CCOCCOCCNC(=O)COc2ccc3c(c2)CCCN3C(=O)CCl)c1 [KB02-SLF, (R)-1-(3-(3-(2-(2-(2-((1-(2-chloroacetyl)-1,2,3,4-tetrahydroquinolin-6-yl)oxy)acetamido)ethoxy)ethoxy)propanamido)phenyl)-3-(3,4-dimethoxyphenyl)propyl (S)-1-(3,3-dimethyl-2-oxopentanoyl)piperidine-2-carboxylate] |  |  |  | fully engaged | no evidence of engagement | ~10
